Nc1ccc(Br)nn1
solubility (mole fraction)
Conditions | in DMF | in acetone | in ethanol | in isopropanol | in methanol | in n-butanol | in n-propanol | in propylene glycol | in toluene | in water
278.15 K | 0.0126 | 0.00754 | 0.00216 | 0.00276 | 0.00108 | 0.00362 | 0.00316 | 0.00191 | 0.00989 | 2.57e-05
283.15 K | 0.0134 | 0.00832 | 0.00233 | 0.0031 | 0.00115 | 0.00405 | 0.00356 | 0.00205 | 0.0108 | 2.74e-05
288.15 K | 0.0144 | 0.0092 | 0.00251 | 0.00346 | 0.00123 | 0.00451 | 0.00401 | 0.0022 | 0.0118 | 2.94e-05
293.15 K | 0.0155 | 0.0102 | 0.0027 | 0.00384 | 0.00131 | 0.005 | 0.00446 | 0.0024 | 0.0129 | 3.18e-05
298.15 K | 0.0167 | 0.0113 | 0.0029 | 0.0043 | 0.00142 | 0.00556 | 0.00496 | 0.0026 | 0.0141 | 3.43e-05
303.15 K | 0.0179 | 0.0125 | 0.00314 | 0.00475 | 0.00152 | 0.0062 | 0.00557 | 0.00281 | 0.0154 | 3.7e-05
308.15 K | 0.0192 | 0.0138 | 0.0034 | 0.0053 | 0.00165 | 0.00687 | 0.00617 | 0.00305 | 0.0167 | 3.97e-05
313.15 K | 0.0206 | 0.0153 | 0.00366 | 0.00586 | 0.00178 | 0.00759 | 0.00683 | 0.0033 | 0.018 | 4.27e-05
318.15 K | 0.0223 | 0.0169 | 0.00399 | 0.00649 | 0.00192 | 0.00838 | 0.00758 | 0.00357 | 0.0196 | 4.6e-05
323.15 K | 0.0242 | 0.0188 | 0.0044 | 0.00721 | 0.00209 | 0.00933 | 0.0085 | 0.00391 | 0.0213 | 4.98e-05

From BigSolDB 2.1
